Experimental data published in patent US8236791B2, “Assays for S100 inhibitors” (Albert Einstein College of Medicine of Yeshiva University, priority 2005, dated 2012).

These compounds were tested against T1, S100A4 (Homo sapiens, UniProt P26447) (assay: S100A4 biosensor (Mero-S100A4) fluorescence assay for S100A4 inhibitors). Settings: screening assay: 5 μM S100A4 biosensor (dimer), 100 μM FDA approved drug, 0.3 mM CaCl2; controls: no addition 8475, calcium 14996, calcium + EGTA 6088.
T1 construct: It is a chemical label, not a fused protein
T1 sequence (P26447 whole entry C3A/C76A/C86A, form open, the tested form may be a part): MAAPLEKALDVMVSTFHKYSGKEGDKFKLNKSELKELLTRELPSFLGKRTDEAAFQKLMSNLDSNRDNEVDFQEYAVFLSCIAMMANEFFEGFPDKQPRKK
Format: biochemical
Description: We produced and characterized a fluorescent analog of S100A4 (Mero-S100A4) that reports calcium binding, and thus serves to identify activated S100A4 (Garrett et al., 2004). To produce the S100A4 biosensor that monitors protein activation (i.e., calcium binding) Cys81 was derivatized with the ISO-IAA dye to a stoichiometry of 1:1 (FIG. 2).
Binding of the Mero-S100A4 to myosin-IIA results in only a small increase in fluorescence intensity (FIG. 3, right panel). These observations indicate that the S100A4 biosensor reports only calcium binding and not target binding. In addition, calcium binding studies indicate that mutagenesis and dye attachment have not altered the binding affinity of the labeled S100A4 for calcium (data not shown).
A total of 333 FDA approved drugs were tested for their ability to inhibit S100A4, using the biosensor described in Example 1. Screening assays used 5 μM S100A4 biosensor (dimer concentration), 100 μM FDA approved drug, buffer: 50 mM Tris-HCl, pH 7.5, 150 mM NaCl, 0.3 mM CaCl2, 0.02% NaN3, 1 mM DTT, 10% DMSO. […] 100 μl assay volume.

| SMILES | Arbitrary Fluorescence Units |
| --- | --- |
| OCCN1CCN(CC/C=C2/c3ccccc3Sc3ccc(C(F)(F)F)cc32)CC1 [flupenthixol-cis] | 6449 Arbitrary Fluorescence Units |
| CN(C)C(=O)C(CCN1CCC(O)(c2ccc(Cl)cc2)CC1)(c1ccccc1)c1ccccc1 [loperamide] | 3820 Arbitrary Fluorescence Units |
| CN(C)CC/C=C1/c2ccccc2Sc2ccc(Cl)cc21 [chlorprothixene] | 7977 Arbitrary Fluorescence Units |
| CC(C)COCC(CN(Cc1ccccc1)c1ccccc1)N1CCCC1 (stereo not drawn) [bepridil] | 6954 Arbitrary Fluorescence Units |

Continued, values first:

| Arbitrary Fluorescence Units | SMILES |
| --- | --- |
| 7399 Arbitrary Fluorescence Units | OCCN1CCN(CCCN2c3ccccc3Sc3ccc(Cl)cc32)CC1 [perphenazine] |
| 7759 Arbitrary Fluorescence Units | CC(=O)N1CCN(c2ccc(OCC3COC(Cn4ccnc4)(c4ccc(Cl)cc4Cl)O3)cc2)CC1 (stereo not drawn) [ketoconazole] |
| 6908 Arbitrary Fluorescence Units | OCCN1CCN(CCCN2c3ccccc3Sc3ccc(C(F)(F)F)cc32)CC1 [fluphenazine] |
| 5505 Arbitrary Fluorescence Units | CN1CCN(CCCN2c3ccccc3Sc3ccc(Cl)cc32)CC1 [prochlorperazine] |
| 7898 Arbitrary Fluorescence Units | CN(C)CCCN1c2ccccc2CCc2ccc(Cl)cc21 [clomipramine] |
| 7939 Arbitrary Fluorescence Units | CN1CCN(CCCN2c3ccccc3Sc3ccc(C(F)(F)F)cc32)CC1 [trifluoperazine] |

Each compound was assayed against T1, S100A4 in the same assay as above. Settings: 5 μM S100A4 biosensor, 0-400 μM small molecule inhibitor, 0.3 mM CaCl2 buffer.
Format: biochemical

| SMILES | IC50 [µM] |
| --- | --- |
| OCCN1CCN(CC/C=C2/c3ccccc3Sc3ccc(C(F)(F)F)cc32)CC1 [flupenthixol-cis] | 59 |
| CN1CCC(=C2c3ccccc3C=Cc3ccccc32)CC1 [cyproheptadine] | 256 |
| CN(C)C(=O)C(CCN1CCC(O)(c2ccc(Cl)cc2)CC1)(c1ccccc1)c1ccccc1 [loperamide] | 18 |
| CN(C)CC/C=C1/c2ccccc2Sc2ccc(Cl)cc21 [chlorprothixene] | 145 |
| CC(C)COCC(CN(Cc1ccccc1)c1ccccc1)N1CCCC1 (stereo not drawn) [bepridil] | 35 |

More lines, now with the values ahead:

| IC50 [µM] | SMILES |
| --- | --- |
| 164 | OCCN1CCN(CCCN2c3ccccc3Sc3ccc(Cl)cc32)CC1 [perphenazine] |
| 23 | CC(=O)N1CCN(c2ccc(OCC3COC(Cn4ccnc4)(c4ccc(Cl)cc4Cl)O3)cc2)CC1 (stereo not drawn) [ketoconazole] |
| 46 | OCCN1CCN(CCCN2c3ccccc3Sc3ccc(C(F)(F)F)cc32)CC1 [fluphenazine] |
| 33 | CN1CCN(CCCN2c3ccccc3Sc3ccc(Cl)cc32)CC1 [prochlorperazine] |
| 133 | CN(C)CCCN1c2ccccc2CCc2ccc(Cl)cc21 [clomipramine] |
| 34 | CN1CCN(CCCN2c3ccccc3Sc3ccc(C(F)(F)F)cc32)CC1 [trifluoperazine] |
